Several values for one entry are separate records, joined by “and”; a condition that tells them apart may be missing. Identical values can stand only once.
Columns and labels:
[1] = Single dose i.p. bolus liver levels / liver targeting in mice
Experimental: At specified times post injection, mice were anesthetized and exsanguinated via cardiac puncture. The whole liver was removed, and snap-frozen in liquid nitrogen, and homogenized using a Polytron homogenizer PT 10/35 (Brinkmann Instruments, Westbury, N.Y.) in 3 volumes of 10% (v/v) perchloric acid (PCA). After a 5 min centrifugation at 2,500×g, 1 mL of supernatant was neutralized using 0.3 mL 3 M KOH/3 M KHCO3 and mixed thoroughly. Samples were then centrifuged for 5 minutes and resulting supernatants were treated with periodate in order to remove endogenous ribonucleotides which otherwise might interfere with araCTP detection. […] Resulting samples were analyzed by HPLC as described below.
To measure bone marrow araCTP, the bone marrow samples were flushed from the marrow cavities of femurs with 1.2 ml saline into pre-weighed Eppendorf tubes. After centrifugation for 20-30 seconds (Eppendorf microfuge, 14,000 rpm) and removal of the supernatant, 12 volumes of 3% PCA (v/v) were added to the bone marrow cell pellets. Samples were then vortexed until the pellet was well dissolved and centrifuged as above for 10 min. Ninety μL of extracted supernatant was neutralized to pH 7-8 using 30 μL 1 M KOH/1 M KHCO3 and again centrifuged. Resulting supernatants were periodate-treated as above.
Samples (50 μL) were injected onto the column in 70% 10 mM ammonium phosphate buffer and 30% 1 M ammonium phosphate buffer, both at pH 3.5 and containing 6% ethanol. […] A standard curve was prepared by adding known amounts of araCTP into PCA extracts from control liver or bone marrow prior to neutralizing, and preparing HPLC samples accordingly.
To obtain plasma, blood was transferred to heparinized micro-collection tubes and centrifuged in an Eppendorf microfuge at 14,000 rpm for 2 minutes. Resulting plasma was collected, placed on dry ice, and subsequently stored at −20° C. On the day of analysis, proteins were precipitated by adding 1 mL acetonitrile to 100 μL of plasma. After 10 min centrifugation (Eppendorf microfuge, 14,000 rpm), the supernatant was removed and dried in a Savant SpeedVac Plus SC110A. Samples were reconstituted with 110 μL of mobile phase buffer (20 mM KH2PO4, pH 4.5), sonicated for 5 min, and centrifuged for 30 seconds. […] AraC and prodrugs were detected by absorbance at 280 nm and quantitated using standard curves obtained with spiked plasma samples processed as above.
Results are expressed as mean±standard error of the mean. Data were analyzed by repeated measures ANOVA, followed by the Tukey HSD post-hoc test for comparisons at individual time points when appropriate. A p-value of less than 0.05 was considered statistically significant. Dotted lines in figures indicate LOQ (limit of quantitation) using the indicated HPLC method.
In those studies, liver, plasma and bone marrow samples were obtained at necropsy to evaluate liver targeting.
Results are expressed as mean±standard error of the mean. When appropriate, AUC was calculated from time zero to the last time-point of the study. Liver targeting indices (LTIs) were calculated by dividing the liver araCTP AUC by the AUC for plasma araC (plasma LTI) or by the AUC for bone marrow araCTP (bone marrow LTI) for each compound. For the continuous infusion studies, the steady state araCTP levels were divided by the steady state plasma araC levels.

Aqueous stability = assay type: physicochemical; conditions: 100 mM citrate, pH5.0, 37° C, 50 μM
Experimental: Diluted solutions (50 μM) were incubated at 37° C. in a Fisher Scientific dry bath incubator (catalog # 11-718-2) with samples collected every 24 hours and stored at −80° C. Plasma samples (100 μL) were quenched with 1 mL of acetonitrile. […] Samples were resuspended in 120 μL of mobile phase buffer before HPLC injection.
Samples were analyzed on an HP1090 or HP1100 (Hewlett Packard) HPLC using a C-18 Alltech Econosphere column, 150 mm×4.6 mm (catalog # 70065), with a C-18 Alltech Econosphere guard column, 7.5 mm×4.6 mm (catalog # 96121). Samples were eluted with a methanol gradient: 0% for 5 minutes, then increasing to 10% at 10 minutes, 30% at 20 minutes, and 60% at 25 minutes. The column was allowed to equilibrate in 0% methanol for 10 minutes before the next injection. The flow rate was 1 mL/minute with a column temperature of 40° C. Prodrugs eluted around 19.5 minutes and were monitored by UV absorbance at 280 nm. For prodrugs in aqueous conditions, the same method was employed except the methanol gradient was as follows: 0% for 5 minutes, increasing to 10% at 10 minutes, and 30% at 20 minutes with prodrug eluting around 20 minutes.

Question: Which “Liver araCTP Peak @ 1 hr” value ([1]; Mouse, 100 mg (cytarabine equivalents)/kg single IP injection) does the source give for `Nc1ccn([C@@H]2O[C@H](CO[P@@]3(=O)OCC[C@@H](c4ccncc4)O3)[C@@H](O)[C@@H]2O)c(=O)n1` [Compound A, 2(1H)-Pyrimidinone, 4-amino-1-[5-O-[(2R,4S)-2-oxido-4-(4-pyridinyl)-1,3,2-dioxaphosphorinan-2-yl]-β-D-arabinofuranosyl]] here?
Answer: 96 nmol/g and 70 nmol/g

Question: What about the “LTI (Liver/plasma)” value ([1]; Mouse, 100 mg CE/kg single IP, liver araCTP AUC / plasma araC AUC) of the same molecule?
Answer: 27 nmol/g/μM and 19.5 nmol/g/μM

Question: And the “reduction of peripheral exposure (liver targeting)” value ([1]; administered intraperitoneally)?
Answer: ~20 fold

Question: And the “liver araCTP levels relative to Compound B” value ([1]; mice, bolus i.p. injection)?
Answer: ~2 fold

Question: And the “plasma araC levels relative to Compound B” value ([1]; mice, bolus i.p. injection)?
Answer: ~2 fold

Question: And the “liver araCTP peak at 60 minutes post injection” value ([1]; mice, single i.p. bolus, 100 mg/kg CE)?
Answer: 69.89 ± 6.37 nmol/g

Question: And the “t90 in aqueous solution” value (Aqueous stability)?
Answer: 2 days

Source: patent US7553826B2, “Cytarabine monophosphate prodrugs” (Metabasis Therapeutics, Inc., priority 2002, dated 2009)
